The test system of series [1] is Staphylococcus aureus (Isolate ID ATCC 29213). Put plainly: Antibacterial activity, MIC, S. aureus. To be noted: broth microdilution or agar dilution; for MIC: Staphylococcus aureus, ATCC29213, Gram positive strain. It counts as cell-based. The method in brief: (§1)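 Readout is the MIC, established according to CLSI standard M7-A7 using either agar dilution or broth microdilution.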

The subject of series [2] is Enterococcus faecalis (Isolate ID ATCC 29212). Put plainly: Antibacterial activity, MIC, E. faecalis. As to conditions: Enterococcus faecalis, ATCC29212; Gram positive strain; broth microdilution or agar dilution. It counts as cell-based. The protocol:
Bacterial Assay: Determination of Antibacterial Activity
Compounds of the invention were tested for antimicrobial activity by susceptibility testing in liquid or on solid media. MICs for compounds against each strain were determined by the broth microdilution or agar dilution method according to the guidelines of the Clinical Laboratories and Standards Institute, formerly the National Committee for Clinical Laboratory Standards (Clinical Laboratories and Standards Institute. Methods for Dilution Antimicrobial Susceptibility Tests for Bacteria That Grow Aerobically; Approved Standard—Seventh Edition. Document M7-A7. CLSI, Wayne, Pa., 2006; Clinical Laboratories and Standards Institute. The gram positive bacterial strains tested include S. aureus (Staphylococcus aureus (Isolate ID ATCC 29213)), E. faecalis (Enterococcus faecalis (Isolate ID ATCC 29212)) and S. pyogenes (Streptococcus pyogenes (Isolate ID ATCC 51339)). The gram negative bacterial strains tested include H. influenzae (Haemophilus influenzae (Isolate ID ATCC 49247))

Series [3] relates to Streptococcus pyogenes (Isolate ID ATCC 51339). Put plainly: Antibacterial activity, MIC, S. pyogenes. Format: cell-based. To be noted: broth microdilution or agar dilution; for MIC: Streptococcus pyogenes, ATCC51339, Gram positive strain. A digest of the protocol:
as §1

Series [4] has as its system Haemophilus influenzae (Isolate ID ATCC 49247). Put plainly: Antibacterial activity, MIC, H. influenzae. It counts as cell-based. As to conditions: Gram negative strain, broth microdilution or agar dilution; for MIC: Haemophilus influenzae, ATCC49247. The method in brief: as §1
In general terms: Broth dilution looks for growth in wells or tubes with falling amounts of substance.

The next series is described as follows: physchem. As to conditions: for solubility at 24 h: kinetic from dmso stock. A digest of the protocol:
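DMSO doubling dilutions were diluted twenty-fold into 100 mM citrate (pH 4), PBS (pH 7.4) or carbonate-bicarbonate (pH 9). After 24 h equilibration at room temperature, absorbance was read at 620 nm. The reported value is the highest concentration without measurable precipitate.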

The mark [5] stands for this setting: pH 7.4, aqueous buffer, Max Solubility.
Setting [6] is: pH 7.4, aqueous buffer, Solubility (pH 7.4).
The mark [7] stands for this setting: pH 7.4, aqueous buffer, Solubility Range.
[8] abbreviates: pH 7.4, aqueous buffer, Solubility Range (maximum solubility).

In brackets after ≈: the same amount, converted by molar mass. Where only a bound is given, the exact number is not on record here.

For `CCNC(=O)Nc1nc2cc(-c3cnc(N4CCC(C)(C(=O)O)CC4)nc3)cc(C3CCCCC3)c2s1` [Compound 39, 1-{5-[7-Cyclohexyl-2-(3-ethyl-ureido)-benzothiazol-5-yl]-pyrimidin-2-yl}-4-methyl-piperidine-4-carboxylic acid], the MIC in series [1] is 1 to 16 µg/mL (≈ 1.91 to 30.6 µM); in series [2], at most 0.25 µg/mL; in series [3], above 16 µg/mL; in series [4] it was above 16 µg/mL.

`CCNC(=O)Nc1nc2cc(-c3cnc(N4CCC(CC)(C(=O)O)CC4)nc3)cc(-c3cc(=O)[nH]cn3)c2s1` [Compound 111]: the MIC in series [1] is above 16 µg/mL; in series [2], 1 to 16 µg/mL (≈ 1.82 to 29.2 µM); in series [3] it was 1 to 16 µg/mL (≈ 1.82 to 29.2 µM); in series [4], above 16 µg/mL.

Consider `CCNC(=O)Nc1nc2cc(-c3cnc(N4CCC(CC)(C(=O)O)CC4)nc3)cc(/C(CC)=N\OC)c2s1` [Compound 223, (E/Z)-4-ethyl-1-(5-(2-(3-ethylureido)-7-(1-(methoxyimino)propyl)benzo[d]thiazol-5-yl)pyrimidin-2-yl)piperidine-4-carboxylic acid], for which the “Solubility (pH 7.4)” value in “physchem” (24 h, pH 7.4) amounted to 100 μg/mL. Further, the solubility at 24 h in “physchem” (pH 9, aqueous buffer, Max Solubility) was 400 µg/mL (≈ 741 µM); in the series “physchem” (pH 9, aqueous buffer, Solubility Range (maximum solubility)) it was 400 to 800 µg/mL (≈ 741 to 1480 µM). Further, the “Antibacterial Activity (MIC) S. aureus (ATCC 29213)” value in series [1] (Gram positive strain) is given as “A (“A” activity ≦0.25 μg/mL)”. In addition, the “Antibacterial Activity (MIC) S. pyogenes (ATCC 51339)” value in series [3] (Gram positive strain) was “A (“A” activity ≦0.25 μg/mL)”. In addition, the “Antibacterial Activity (MIC) H. influenzae (ATCC 49247)” value in series [4] was “C (“C” activity >1.0 μg/mL-16 μg/mL)”.

Take `CCNC(=O)Nc1nc2cc(-c3cnc(N4CCC(CC)(C(=O)O)CC4)nc3)cc(/C(CC)=N/OC)c2s1` [Compound 224, 4-ethyl-1-[5-[2-(ethylcarbamoylamino)-7-[(E)-C-ethyl-N-methoxy-carbonimidoyl]-1,3-benzothiazol-5-yl]pyrimidin-2-yl]piperidine-4-carboxylic acid]: the solubility at 24 h in the series “physchem” (setting [5]) was at least 800 µg/mL; in the series “physchem” (setting [6]) it was at least 800 µg/mL; in “physchem” (setting [7]) it was above 800 µg/mL; in “physchem” (setting [8]), above 800 µg/mL. The values for the MIC in series [1], in series [3] and in series [4] were at most 0.25 µg/mL, at most 0.25 µg/mL and 1 to 16 µg/mL (≈ 1.85 to 29.6 µM), respectively.

Turning to `CCNC(=O)Nc1nc2cc(-c3cnc(N4CCC(CC)(C(=O)O)CC4)nc3)cc(/C=N\OC)c2s1` [Compound 225, 4-Ethyl-1-[5-[2-(ethylcarbamoylamino)-7-[(Z)-methoxyiminomethyl]-1,3-benzothiazol-5-yl]pyrimidin-2-yl]piperidine-4-carboxylic acid], the solubility at 24 h in “physchem” (setting [5]) is at least 800 µg/mL; in the series “physchem” (setting [6]) it was at least 800 µg/mL; in the series “physchem” (setting [7]), above 800 µg/mL; in the series “physchem” (setting [8]), above 800 µg/mL. Also, the figures for the MIC in series [1], in series [3] and in series [4] were at most 0.25 µg/mL, at most 0.25 µg/mL and 0.25 to 1 µg/mL (≈ 0.489 to 1.95 µM), respectively.

As for `CCNC(=O)Nc1nc2cc(-c3cnc(N4CCC(CC)(C(=O)O)CC4)nc3)cc(-c3ncc(C)cn3)c2s1` [Compound 226], the solubility at 24 h in the series “physchem” (setting [5]) was at least 800 µg/mL; in the series “physchem” (setting [6]) it was at least 800 µg/mL; in “physchem” (setting [7]) it was above 800 µg/mL; in “physchem” (setting [8]), above 800 µg/mL. Further, the results for the MIC in series [1], in series [3] and in series [4] were at most 0.25 µg/mL, at most 0.25 µg/mL and 0.25 to 1 µg/mL (≈ 0.457 to 1.83 µM), respectively.

`CCNC(=O)Nc1nc2cc(-c3cnc(N4CCC(C)(C(=O)O)CC4)nc3)cc(-n3cccn3)n2n1` [Compound 227, 1-(5-{2-[(ethylcarbamoyl)amino]-5-(1H-pyrazol-1-yl)[1,2,4]triazolo[1,5-a]pyridin-7-yl}pyrimidin-2-yl)-4-methylpiperidine-4-carboxylic acid]: the solubility at 24 h in “physchem” (setting [5]) was 400 µg/mL (≈ 815 µM); in the series “physchem” (setting [6]) it was 400 µg/mL (≈ 815 µM); in the series “physchem” (setting [7]) it was 400 to 800 µg/mL (≈ 815 to 1630 µM); in “physchem” (setting [8]), 400 to 800 µg/mL (≈ 815 to 1630 µM). The MIC in series [1], in series [3] and in series [4] was 1 to 16 µg/mL (≈ 2.04 to 32.6 µM) in each case.

For the compound `CCNC(=O)Nc1nc2cc(-c3cnc(N4CCC(CC)(C(=O)O)CC4)nc3)cc(-c3ncccn3)c2s1` [Compound 228], the solubility at 24 h was 200 µg/mL (≈ 375 µM) in “physchem” (setting [5]), 200 µg/mL (≈ 375 µM) in the series “physchem” (setting [6]), 12.5 to 400 µg/mL (≈ 23.5 to 751 µM) in the series “physchem” (setting [7]) and 12.5 to 400 µg/mL (≈ 23.5 to 751 µM) in the series “physchem” (setting [8]). The figures for the MIC in series [1], in series [3] and in series [4] were at most 0.25 µg/mL, at most 0.25 µg/mL and 1 to 16 µg/mL (≈ 1.88 to 30 µM), respectively.

On to `CCNC(=O)Nc1nc2cc(-c3cnc(N4CCC(CC)(C(=O)O)CC4)nc3)cc(-c3ccccn3)c2[nH]1` [Compound 229, 4-Ethyl-1-(5-(2-(3-ethylureido)-7-(pyridin-2-yl)-1H-benzoimidazol-5-yl)pyrimidin-2-yl)piperidine-4-carboxylic acid], for which the solubility at 24 h in the series “physchem” (pH 7.4, aqueous buffer, Solubility (pH 7.4), pH 7.4 (PBS), 24 hours at room temperature, turbidimetric) is 100 µg/mL (≈ 194 µM); in “physchem” (pH 7.4, aqueous buffer, Solubility Range, pH 7.4) it was 12.5 to 400 µg/mL (≈ 24.3 to 777 µM); in the series “physchem” (pH 9, aqueous buffer, Max Solubility, maximum of pH 4, 7.4 and 9, shown at pH 9) it was 200 µg/mL (≈ 389 µM); in the series “physchem” (pH 9, aqueous buffer, Solubility Range (maximum solubility), maximum of pH 4, 7.4 and 9, shown at pH 9) it was 12.5 to 400 µg/mL (≈ 24.3 to 777 µM). In addition, the figures for the MIC in series [1], in series [3] and in series [4] were at most 0.25 µg/mL, at most 0.25 µg/mL and 1 to 16 µg/mL (≈ 1.94 to 31.1 µM), respectively.

What is called solubility is how much of the substance goes into solution per volume. Low readings indicate a poorly soluble substance, high ones a readily soluble substance.

Values taken from US9181234B2, “Antibacterial compounds” (priority 2010, dated 2015).
